US20240415798A1, “COMPOSITIONS AND METHODS FOR TREATING MUCOSITIS” (Enzychem Lifesciences Corporation, priority 2021, published 2024)
Several values for one entry are separate records, joined by “and”; a condition that tells them apart may be missing. Equal entries are not always repeated.

Tests used:
[1] = tested on: severe oral mucositis (SOM); experiment: Phase 2 clinical study of EC-18 in chemoradiation-induced oral mucositis (efficacy); type: in vivo, human
Source text: Human patients of the following characteristics were enrolled: • 18 years or older • Diagnosis of squamous cell carcinoma of the mouth, oropharynx, hypopharynx or nasopharynx • Planned to receive IMRT with daily fractions of 2.0 Gy to 2.2 Gy to a cumulative dose of at least 60 Gy and a maximum of 72 Gy • Radiation fields to include at least two mucositis sites at risk (buccal mucosa, floor of mouth, ventral and lateral tongue, soft palate) in which both sites receive a minimum cumulative dose of 55 Gy • Planned to receive concomitant single agent chemotherapy with cisplatin
EC-18 was administered in varying patients of the treatment group up to 2000 mg/day. Recommended therapy was 500 mg EC-18 capsule administered 4 times throughout the day (e.g., 2 capsules of 500 mg EC-18 administered within 30 mins after taking breakfast and dinner) for a total daily dosage of 2000 mg EC-18 per day. Treatment protocol lasted 7 weeks while radiation therapy and cisplatin therapy continued during the same time.
(§1) For the study, 25 large institutions and hospitals experienced with head and neck cancer treatment were selected • Stage 1: To Evaluate safety and MTD that can be used for Stage 2 iDSMB: Data and Safety Monitoring Board reviewed safety data every 2 weeks and approved for Stage 2 using MTD 2000 mg. • Stage 2: To Evaluate safety and efficacy 7 weeks Active and 4-6 weeks of STFU until OM is resolved. • 2.0-2.2 Gy daily fraction (5 days a week for 7 weeks) and I week (40 mg/m2) or every 3 weeks (100 mg/m2) cisplatin. • Minimum cumulative radiation dose of 55 Gy.
For Efficacy, measured duration of severe oral mucositis (SOM), Incidence of SOM during active treatment.
In Stage 1, we included Stage 1 placebo and 2000 mg patients to Stage 2 for efficacy analysis: • Placebo group: Stage 1 n=2, Stage 2 n=18: Total: 20 • EC-18 2000 mg group: Stage 1 n=5, Stage 2 n=17: Total: 22

[2] = Phase 2 clinical study of EC-18, safety (SAE/AE, MTD); type: in vivo
Procedure: as §1
Stage 1 had 17 total SAEs from a total of 24 patients when Stage 2 had 31 total SAEs from a total of 81 patients. 020-018 patient was determined by investigator to be not related to study drug. Many SAEs occurred due to nausea and vomiting which is a normal symptom for chemo treatment

TGFβ = experiment: Luminex assay of patient plasma, TGFβ; type: in vivo, human
Procedure: (§2) The plasma sample collected from the blood of patients listed in (Table 1 below) was thawed and centrifuged at 10,000 rpm at 4° C. for 2 minutes, and the supernatant was used for analysis. The supernatant was serially diluted, and 50 μl of the samples were dispensed to each well in a 96-well plate. 5O μl of diluted Microparticle Cocktail (R&D systems) shown in Table 2 was added to each well containing samples and incubated for 2 hours at room temperature on a shaker at 800 rpm. The sample mixture was removed and washed with 100 μl of washing buffer three times. Then, 50 μL of diluted Biotin-Antibody Cocktail (R&D systems) to each well and incubate for 1 hour at RT on the shaker at 800 rpm, followed by three times of washing with wash buffer. 50 μL of diluted […] at RT on the shaker at 800 rpm. After washing with wash buffer three times, 100 μl of wash buffer was added to each well, and the sample's fluorescence intensity was obtained using a Luminex analyzer (Luminex) within 90 mins.
(§3) Standard, control and the sample was quantitatively analyzed using the average value of the results obtained by duplicate test.
(§4) The absolute value of each sample's mean fluorescence intensity (MFI) was obtained by comparing it to the standard curve. The value derived as an under-standard was marked as 0 because it is a trace value outside the detection range of the assay kit.
(§5) The standard curve was obtained by the best fit method in ‘MasterPlex QT 2010 (MiraiBio, Hitachi, CA, USA)’ to calculate the response measured value (MFI) for each standard concentration, which has the highest R square value among each calculation method (Highest value =1.0). The sample's resultant concentration value was calculated based on this standard curve.

IL-1β = experiment: Luminex assay of patient plasma, IL-1β; type: in vivo, human
Procedure: as §2, §3, §4, §5

[3] = PP population, EC-18 2,000 mg vs placebo
[4] = regardless of the incidence of SOM

Compound: CCCCC/C=C\C/C=C\CCCCCCCC(=O)OC(COC(C)=O)COC(=O)CCCCCCCCCCCCCCC (centres unmarked) [EC-18]
- reduction of incidence of SOM compared to placebo population ([1]; EC-18 group vs placebo): over 35%
- therapeutic benefit over the control group ([1]; EC-18 up to 2000 mg/day, 7 weeks, with radiation and cisplatin): clear therapeutics benefit over the control group
- delay of SOM onset compared with placebo [1, 3]: 8 days
- delay of first opioid use vs placebo, mean [1, 3]: 6.3 days
- delay of first opioid use vs placebo, median [1, 3]: 11.5 days
- time to SOM onset ([1]; PP population, EC-18 2,000 mg, placebo 43 days): 51 days
- incidence of SOM through active treatment period ([1]; PP population, baseline through 7-week active treatment period, EC-18 2,000 mg, placebo 65.0%): 36.4%
- incidence of SOM (number of subjects) ([1]; PP population, baseline through active treatment period and STFU, EC-18 2000 mg (n=22), placebo 14): 10
- incidence of SOM ([1]; PP population, baseline through active treatment period and STFU, EC-18 2000 mg, placebo 70.0%): 45.5% and 45%
- time to first use of opioid analgesics, median ([1]; PP population, evaluable subjects n=8, EC-18 2000 mg, placebo 25.5 days): 37 days
- time to first use of opioid analgesics, mean ([1]; PP population, evaluable subjects n=8, EC-18 2000 mg, placebo 26 days): 32.3 days
- SOM incidence at each week interval ([1]; PP population, weekly intervals, vs placebo): less than placebo group
- incidence of SOM, HPV+ ([1]; subjects with HPV+, EC-18 2000 mg, placebo 66.7%): 35.3%
- incidence of SOM, HPV− ([1]; subjects with HPV−, EC-18 2000 mg, placebo 71.4%): 75%
- incidence of SOM, tri-weekly cisplatin ([1]; subjects with tri-weekly cisplatin, EC-18 2000 mg, placebo 70.0%): 66.7%
- incidence of SOM, weekly cisplatin ([1]; subjects with weekly cisplatin, EC-18 2000 mg, placebo 70.0%): 37.5%
- MTD ([2]; Stage 1, daily dose, approved for Stage 2): 2000 mg
- serious adverse events (SAE) across study arms ([2]; human, in vivo): no appreciable differences in SAEs were observed across the study arms
- attribution of reported AEs ([2]; human, in vivo, 7 weeks): all the reported AEs were attributable to chemoradiation treatment and not to EC-18
- TGF-β concentration vs placebo, total (TGFβ; 7th week of chemoradiation therapy): significantly higher than the placebo group
- TGF-β concentration vs placebo, HPV-positive (TGFβ; HPV-positive population): significantly higher compared with placebo
- TGF-β concentration vs placebo, with or without SOM (TGFβ; [4]): higher compared with the placebo group
- TGFβ concentration vs placebo, tri-weekly cisplatin (TGFβ; sub-population with tri-weekly cisplatin): not significantly different
- TGF-β concentration vs placebo, cisplatin once a week (TGFβ; sub-population with weekly cisplatin): significantly higher compared with placebo
- IL-1β concentration at 4th and 7th weeks (IL-1β; 4th and 7th weeks of treatment): under the detection limit
- IL-1β concentration vs placebo, HPV+/HPV− (IL-1β; regardless of HPV infection state): significantly lower compared with the placebo group
- IL-1β concentration vs placebo, with or without SOM (IL-1β; [4]): significantly lower compared with the placebo group
- IL-1β concentration vs placebo, weekly or tri-weekly cisplatin (IL-1β; regardless of the weekly or tri-weekly cisplatin treatment): significantly lower than in the placebo group
- IL-1β concentration vs placebo, total (IL-1β; throughout seven weeks treatment period): significantly lower than the placebo group
